Among the data in patent US20240025884A1 (Dong-A ST Co., Ltd., priority 2022, published 2024) are IC50 values, retold here.

For this experiment, the target named is GCN2 (Homo sapiens (Human), UniProt Q9P2K8). The experiment can be described thus: GCN2 Biochemical Assay (TR-FRET, GFP-eIF2S1 substrate phosphorylation). Particulars: read-out: IC50 (GCN2 Inhibitory Activity). The gist of the method: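 TR-FRET readout (Ex 340, Em 490/520 nm) after 2–3 h with Tb-labelled phospho-eIF2S1 antibody in stop mix, following a 70 min room-temperature kinase step. Reaction: in-house GCN2, GFP-eIF2S1, ATP, tRNA in Tris pH 7.5 (2× stocks 1.6 nM, 50 nM, 0.2 mM); compounds tested at 10 concentrations, with a phospho-substrate artifact counter-plate.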
A general note: In TR-FRET formats the signal depends on donor and acceptor labels being close together.

Each structure is given as a SMILES string.

Chain of GCN2 (Q9P2K8 whole entry): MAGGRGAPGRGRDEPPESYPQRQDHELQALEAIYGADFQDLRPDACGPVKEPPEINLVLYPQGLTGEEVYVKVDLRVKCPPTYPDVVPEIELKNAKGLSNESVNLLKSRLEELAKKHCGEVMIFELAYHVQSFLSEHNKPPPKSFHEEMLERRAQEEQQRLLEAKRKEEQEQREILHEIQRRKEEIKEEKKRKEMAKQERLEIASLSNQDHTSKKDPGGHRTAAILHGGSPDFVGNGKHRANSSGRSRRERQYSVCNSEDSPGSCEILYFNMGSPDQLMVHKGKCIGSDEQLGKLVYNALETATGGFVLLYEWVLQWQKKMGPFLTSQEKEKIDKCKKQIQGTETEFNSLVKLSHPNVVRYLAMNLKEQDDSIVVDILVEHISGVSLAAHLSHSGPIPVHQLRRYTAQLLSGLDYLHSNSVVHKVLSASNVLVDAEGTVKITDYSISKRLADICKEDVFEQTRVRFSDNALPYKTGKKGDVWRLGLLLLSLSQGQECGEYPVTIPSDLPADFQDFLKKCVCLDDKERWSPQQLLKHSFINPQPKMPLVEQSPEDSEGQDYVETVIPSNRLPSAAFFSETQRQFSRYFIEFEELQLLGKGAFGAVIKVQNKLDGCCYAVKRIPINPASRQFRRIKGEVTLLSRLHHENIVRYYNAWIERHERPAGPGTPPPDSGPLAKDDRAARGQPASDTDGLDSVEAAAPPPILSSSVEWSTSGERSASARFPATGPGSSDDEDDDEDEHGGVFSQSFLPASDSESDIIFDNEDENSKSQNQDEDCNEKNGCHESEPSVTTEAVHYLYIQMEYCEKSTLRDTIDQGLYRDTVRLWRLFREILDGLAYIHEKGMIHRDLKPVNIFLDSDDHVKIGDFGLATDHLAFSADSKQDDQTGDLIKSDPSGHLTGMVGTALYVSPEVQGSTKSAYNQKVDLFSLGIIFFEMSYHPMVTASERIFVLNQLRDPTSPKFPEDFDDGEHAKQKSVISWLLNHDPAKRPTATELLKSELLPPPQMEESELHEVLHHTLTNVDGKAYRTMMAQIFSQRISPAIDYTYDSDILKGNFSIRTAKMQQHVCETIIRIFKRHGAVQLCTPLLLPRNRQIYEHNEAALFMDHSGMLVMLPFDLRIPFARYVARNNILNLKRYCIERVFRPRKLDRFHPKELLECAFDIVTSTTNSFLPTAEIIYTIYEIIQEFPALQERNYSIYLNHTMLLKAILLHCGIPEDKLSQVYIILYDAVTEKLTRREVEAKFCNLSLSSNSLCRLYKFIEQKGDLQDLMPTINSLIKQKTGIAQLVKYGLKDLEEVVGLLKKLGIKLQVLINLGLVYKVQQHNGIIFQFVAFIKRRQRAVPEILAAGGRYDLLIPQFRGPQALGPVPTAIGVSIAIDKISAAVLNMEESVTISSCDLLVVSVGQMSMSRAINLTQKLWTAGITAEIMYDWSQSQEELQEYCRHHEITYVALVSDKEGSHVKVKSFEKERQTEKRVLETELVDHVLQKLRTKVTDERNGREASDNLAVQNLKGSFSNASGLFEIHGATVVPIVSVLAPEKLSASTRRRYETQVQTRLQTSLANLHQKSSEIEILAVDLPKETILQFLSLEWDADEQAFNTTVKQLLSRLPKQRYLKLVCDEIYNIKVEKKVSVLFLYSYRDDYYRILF

One may read the IC50 as the midpoint of a concentration-inhibition curve. In the case of `CCN(C)c1cc(O[C@H]2CCN(CC(=O)Nc3cccc4c(-c5nc(Nc6cc(C)n(C)n6)ncc5C)c[nH]c34)C2)ncn1` [Example 154, (S)-N-(3-(2-((1,5-dimethyl-1H-pyrazol-3-yl)amino)-5-methylpyrimidin-4-yl)-1H-indol-7-yl)-2-(3-((6-(ethyl(methyl)amino)pyrimidin-4-yl)oxy)pyrrolidin-1-yl)acetamide], the concentration for half-maximal inhibition (IC50) is below 10 nM.

Take `Cc1cnc(Nc2cc(C)n(C)n2)nc1-c1c[nH]c2c(NC(=O)CN3CCC(Oc4cc(C(=O)NC5CC5)on4)CC3)cccc12` [Example 43, N-cyclopropyl-3-((1-(2-((3-(2-((1,5-dimethyl-1H-pyrazol-3-yl)amino)-5-methylpyrimidin-4-yl)-1H-indol-7-yl)amino)-2-oxoethyl)piperidin-4-yl)oxy)isoxazole-5-carboxamide]: the IC50 was in the range of 10 to 100 nM.

On to `Cc1cnc(Nc2cc(C)n(C)n2)nc1-c1c[nH]c2c(NC(=O)CN3CCC(CC#N)C3)cccc12` (stereo not shown) [Example 45, 2-(3-(cyanomethyl)pyrrolidin-1-yl)-N-(3-(2-((1,5-dimethyl-1H-pyrazol-3-yl)amino)-5-methylpyrimidin-4-yl)-1H-indol-7-yl)acetamide], for which the IC50 lay within 100 to 1000 nM.

As to `Cc1cnc(Nc2cc(C)n(C)n2)nc1-c1c[nH]c2c(NC(=O)CN3CC(Oc4cc(C(=O)NC5CC5)on4)C3)cccc12` [Example 33, N-cyclopropyl-3-((1-(2-((3-(2-((1,5-dimethyl-1H-pyrazol-3-yl)amino)-5-methylpyrimidin-4-yl)-1H-indol-7-yl)amino)-2-oxoethyl)azetidin-3-yl)oxy)isoxazole-5-carboxamide], the IC50 is 10 to 100 nM.

In the case of `COC(=O)C1CN(CC(=O)Nc2cccc3c(-c4nc(Nc5cc(C)n(C)n5)ncc4C)c[nH]c23)C1` [Example 31, methyl 1-(2-((3-(2-((1,5-dimethyl-1H-pyrazol-3-yl)amino)-5-methylpyrimidin-4-yl)-1H-indol-7-yl)amino)-2-oxoethyl)azetidine-3-carboxylate], the IC50 was in the range of 10 to 100 nM.

`Cc1cnc(Nc2cc(C)n(C)n2)nc1-c1c[nH]c2c(N3Cc4c(cccc4-c4ccc(OC(F)(F)F)cc4)C3=O)cccc12` [Example 395, 2-(3-(2-((1,5-dimethyl-1H-pyrazol-3-yl)amino)-5-methylpyrimidin-4-yl)-1H-indol-7-yl)-4-(4-(trifluoromethoxy)phenyl)isoindolin-1-one]: the IC50 lay in the range of 10 to 100 nM.

As for `Cc1cnc(Nc2cc(C)n(C)n2)nc1-c1c[nH]c2c(NC(=O)CN3CC[C@H](Oc4nc(NCc5ccccc5)ncc4F)C3)cccc12` [Example 230, (S)-2-(3-((2-(benzylamino)-5-fluoropyrimidin-4-yl)oxy)pyrrolidin-1-yl)-N-(3-(2-((1,5-dimethyl-1H-pyrazol-3-yl)amino)-5-methylpyrimidin-4-yl)-1H-indol-7-yl)acetamide], the IC50 fell in the range of 10 to 100 nM.

With `Cc1cnc(Nc2cc(C)n(C)n2)nc1-c1c[nH]c2c(N3Cc4c(NC(=O)C5CCC(=O)N5)cccc4C3=O)cccc12` (stereo not shown) [Example 308, N-(2-(3-(2-((1,5-dimethyl-1H-pyrazol-3-yl)amino)-5-methylpyrimidin-4-yl)-1H-indol-7-yl)-1-oxoisoindolin-4-yl)-5-oxopyrrolidine-2-carboxamide], the IC50 was below 10 nM.

For the compound `CNc1nccc(O[C@H]2CCN(CC(=O)Nc3cccc4c(-c5nc(Nc6cc(C)n(C)n6)ncc5C)c[nH]c34)C2)n1` [Example 197, (S)-N-(3-(2-((1,5-dimethyl-1H-pyrazol-3-yl)amino)-5-methylpyrimidin-4-yl)-1H-indol-7-yl)-2-(3-((2-(methylamino)pyrimidin-4-yl)oxy)pyrrolidin-1-yl)acetamide], the IC50 is below 10 nM.

For the compound `Cc1ccccc1-c1cccc2c1CN(c1cccc3c(-c4nc(Nc5cc(C)n(C)n5)ncc4C)c[nH]c13)C2=O` [Example 440, 2-(3-(2-((1,5-dimethyl-1H-pyrazol-3-yl)amino)-5-methylpyrimidin-4-yl)-1H-indol-7-yl)-4-(o-tolyl)isoindolin-1-one], the IC50 is 10 to 100 nM.

On to `Cc1cnc(Nc2cc(C)n(C)n2)nc1-c1c[nH]c2c(NC(=O)CN3CC[C@H](Oc4cc(C(F)(F)F)nc(N)n4)C3)cccc12` [Example 99, (S)-2-(3-((2-amino-6-(trifluoromethyl)pyrimidin-4-yl)oxy)pyrrolidin-1-yl)-N-(3-(2-((1,5-dimethyl-1H-pyrazol-3-yl)amino)-5-methylpyrimidin-4-yl)-1H-indol-7-yl)acetamide], for which the concentration for half-maximal inhibition (IC50) is 10 to 100 nM.

As to `Cc1cnc(Nc2cc(C)n(C)n2)nc1-c1c[nH]c2c(N3Cc4c(cccc4C4=CCOCC4)C3=O)cccc12` [Example 392, 4-(3,6-dihydro-2H-pyran-4-yl)-2-(3-(2-((1,5-dimethyl-1H-pyrazol-3-yl)amino)-5-methylpyrimidin-4-yl)-1H-indol-7-yl)isoindolin-1-one], the IC50 is below 10 nM.

As for `Cc1cnc(Nc2cc(C)n(C)n2)nc1-c1c[nH]c2c(N3Cc4c(NC(=O)C5CCCC5)cccc4C3=O)cccc12` [Example 336, N-(2-(3-(2-((1,5-dimethyl-1H-pyrazol-3-yl)amino)-5-methylpyrimidin-4-yl)-1H-indol-7-yl)-1-oxoisoindolin-4-yl)cyclopentanecarboxamide], the IC50 fell in the range of 10 to 100 nM.

With `Cc1cnc(Nc2cc(C)n(C)n2)nc1-c1c[nH]c2c(NC(=O)CN3CC[C@H](Oc4ccsn4)C3)cccc12` [Example 114, (S)-N-(3-(2-((1,5-dimethyl-1H-pyrazol-3-yl)amino)-5-methylpyrimidin-4-yl)-1H-indol-7-yl)-2-(3-(isothiazol-3-yloxy)pyrrolidin-1-yl)acetamide], the IC50 was 10 to 100 nM.

Regarding `Cc1cnc(Nc2cc(C)n(C)n2)nc1-c1c[nH]c2c(NC(=O)CN3CC[C@H](Oc4nc(N)nc(N5CCCC5)n4)C3)cccc12` [Example 139, (S)-2-(3-((4-amino-6-(pyrrolidin-1-yl)-1,3,5-triazin-2-yl)oxy)pyrrolidin-1-yl)-N-(3-(2-((1,5-dimethyl-1H-pyrazol-3-yl)amino)-5-methylpyrimidin-4-yl)-1H-indol-7-yl)acetamide], the IC50 is below 10 nM.

For the compound `Cc1cnc(Nc2cc(C)n(C)n2)nc1-c1c[nH]c2c(NC(=O)CN3CC[C@H](Oc4ccc(F)cc4Cl)C3)cccc12` [Example 85], the IC50 was in the range of 100 to 1000 nM.

For the compound `CC1=CCC(C(=O)Nc2cccc3c2CN(c2cccc4c(-c5nc(Nc6cc(C)n(C)n6)ncc5C)c[nH]c24)C3=O)CC1` (stereo not shown) [Example 330, N-(2-(3-(2-((1,5-dimethyl-1H-pyrazol-3-yl)amino)-5-methylpyrimidin-4-yl)-1H-indol-7-yl)-1-oxoisoindolin-4-yl)-4-methylcyclohex-3-ene-1-carboxamide], the IC50 lay in the range of 10 to 100 nM.

For `Cc1cnc(Nc2cc(C)n(C)n2)nc1-c1c[nH]c2c(NC(=O)CN3CC[C@H](Oc4ccsc4C)C3)cccc12` [Example 115, (S)-N-(3-(2-((1,5-dimethyl-1H-pyrazol-3-yl)amino)-5-methylpyrimidin-4-yl)-1H-indol-7-yl)-2-(3-((2-methylthiophen-3-yl)oxy)pyrrolidin-1-yl)acetamide], the IC50 lay within 10 to 100 nM.

Consider `Cc1cnc(Nc2cc(C)n(C)n2)nc1-c1c[nH]c2c(NC(=O)CN3CC[C@H](Oc4cnc(N(C)C)nc4)C3)cccc12` [Example 240, (S)-N-(3-(2-((1,5-dimethyl-1H-pyrazol-3-yl)amino)-5-methylpyrimidin-4-yl)-1H-indol-7-yl)-2-(3-((2-(dimethylamino)pyrimidin-5-yl)oxy)pyrrolidin-1-yl)acetamide], for which the IC50 was 10 to 100 nM.

Regarding `Cc1cc(-c2ccc(F)c3c2CN(c2cccc4c(-c5nc(Nc6cc(C)n(C)n6)ncc5C)c[nH]c24)C3=O)cc(C)n1` [Example 488, 2-(3-(2-((1,5-dimethyl-1H-pyrazol-3-yl)amino)-5-methylpyrimidin-4-yl)-1H-indol-7-yl)-4-(2,6-dimethylpyridin-4-yl)-7-fluoroisoindolin-1-one], the IC50 was below 10 nM.

Turning to `CCNc1cc(O[C@H]2CCN(CC(=O)Nc3cccc4c(-c5nc(Nc6cc(C)n(C)n6)ncc5C)c[nH]c34)C2)ncn1` [Example 142, (S)-N-(3-(2-((1,5-dimethyl-1H-pyrazol-3-yl)amino)-5-methylpyrimidin-4-yl)-1H-indol-7-yl)-2-(3-((6-(ethylamino)pyrimidin-4-yl)oxy)pyrrolidin-1-yl)acetamide], the 50% inhibitory concentration (IC50) is below 10 nM.

On to `Cc1cnc(Nc2cc(C)n(C)n2)nc1-c1c[nH]c2c(NC(=O)CN3CC[C@H](Oc4ccnc(N(C)Cc5ccccc5)n4)C3)cccc12` [Example 221, (S)-2-(3-((2-(benzyl(methyl)amino)pyrimidin-4-yl)oxy)pyrrolidin-1-yl)-N-(3-(2-((1,5-dimethyl-1H-pyrazol-3-yl)amino)-5-methylpyrimidin-4-yl)-1H-indol-7-yl)acetamide], for which the IC50 lay within 100 to 1000 nM.

In the case of `Cc1cnc(Nc2cc(C)n(C)n2)nc1-c1c[nH]c2c(N3Cc4c(cccc4-c4ccccc4-c4ccccc4)C3=O)cccc12` [Example 439, 4-([1,1′-biphenyl]-2-yl)-2-(3-(2-((1,5-dimethyl-1H-pyrazol-3-yl)amino)-5-methylpyrimidin-4-yl)-1H-indol-7-yl)isoindolin-1-one], the IC50 was above 1000 nM.

As to `Cc1cnc(Nc2cc(C)n(C)n2)nc1-c1c[nH]c2c(N3Cc4c(cccc4-c4ccc(NC(=O)OC(C)(C)C)cc4)C3=O)cccc12` [Example 398, tert-butyl (4-(2-(3-(2-((1,5-dimethyl-1H-pyrazol-3-yl)amino)-5-methylpyrimidin-4-yl)-1H-indol-7-yl)-1-oxoisoindolin-4-yl)phenyl)carbamate], the IC50 lay within 10 to 100 nM.

Take `Cc1cnc(Nc2cc(C)n(C)n2)nc1-c1c[nH]c2c(N3Cc4c(Br)ccc(F)c4C3=O)cccc12` [Example 283, 4-bromo-2-(3-(2-((1,5-dimethyl-1H-pyrazol-3-yl)amino)-5-methylpyrimidin-4-yl)-1H-indol-7-yl)-7-fluoroisoindolin-1-one]: the concentration for half-maximal inhibition (IC50) was below 10 nM.
